Experimental data: ChEMBL document CHEMBL1201862, “PubChem BioAssay data set” (2004)
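Results reflect a 48-hour exposure of cells in 96-well plates to compound at five concentrations. GI50 = concentration required for 50% inhibition of growth.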 Calls of active or inactive are those of the source. Rule as the data show it: active = GI50 up to about 1.1 µM and inactive = higher.

Key:
Assay in all cases: growth of human tumour cells (NCI), 48 h
[1] = system: 786-0
[2] = system: A549
[3] = system: ACHN
[4] = system: BT-549
[5] = system: CAKI-1
[6] = system: CCRF-CEM
[7] = system: COLO 205
[8] = system: DU-145
[9] = system: EKVX
[10] = system: HCC 2998
[11] = system: HCT-116
[12] = system: HCT-15
[13] = system: HL-60
[14] = system: HOP-62
[15] = system: HOP-92
[16] = system: HT-29
[17] = system: Hs-578T
[18] = system: IGROV-1
[19] = system: K562
[20] = system: KM12
[21] = system: LOX IMVI
[22] = system: M14
[23] = system: MDA-MB-231
[24] = system: MDA-MB-435
[25] = system: MDA-N
[26] = system: MOLT-4
[27] = system: Malme-3M
[28] = system: NCI-H226
[29] = system: NCI-H23
[30] = system: NCI-H460
[31] = system: NCI-H522
[32] = system: NCI/ADR-RES
[33] = system: OVCAR-3
[34] = system: OVCAR-4
[35] = system: OVCAR-5
[36] = system: OVCAR-8
[37] = system: PC-3
[38] = system: RPMI-8226
[39] = system: RXF 393
[40] = system: SF-268
[41] = system: SF-295
[42] = system: SF-539
[43] = system: SK-MEL-28
[44] = system: SK-MEL-2
[45] = system: SK-OV-3
[46] = system: SN12C
[47] = system: SNB-19
[48] = system: SNB-75
[49] = system: SW-620
[50] = system: T47D
[51] = system: U-251
[52] = system: UACC-257
[53] = system: UACC-62
[54] = system: UO-31
[55] = system: MCF7
[56] = system: SK-MEL-5
[57] = system: SR
[58] = system: TK-10
[59] = system: A498

For `CN1CCN(c2ccc3nc(-c4cc(O)c5c(nc(CO)n5C)c4O)[nH]c3n2)CC1`, the GI50 [1] was 52.6 µM (inactive), the GI50 [2] was 69.2 µM (inactive) and the GI50 [3] was 36.1 µM (inactive). The GI50 [4] was > 100 µM (inactive), the GI50 [5] was > 100 µM (inactive) and the GI50 [6] was 18.8 µM (inactive). For the same compound, the GI50 [7] was 15.9 µM (inactive), the GI50 [8] was 43.8 µM (inactive) and the GI50 [9] was 22.9 µM (inactive). For the same compound, the GI50 [10] was 39.9 µM (inactive), the GI50 [11] was 41.9 µM (inactive) and the GI50 [12] was over 100 µM. For the same compound, the GI50 [13] was 16.4 µM (inactive), the GI50 [14] was 52 µM (inactive) and the GI50 [15] was > 100 µM (inactive). For the same compound, the GI50 [16] was 31.3 µM (inactive), the GI50 [17] was > 100 µM (inactive) and the GI50 [18] was 64.6 µM (inactive). For the same compound, the GI50 [19] was 28.8 µM (inactive), the GI50 [20] was 54.2 µM (inactive) and the GI50 [21] was 17.1 µM (inactive). The GI50 [22] was 34.7 µM (inactive), the GI50 [23] was 22.4 µM (inactive) and the GI50 [24] was 18.7 µM (inactive). For the same compound, the GI50 [25] was 34.2 µM (inactive), the GI50 [26] was 17.6 µM (inactive) and the GI50 [27] was 18.4 µM (inactive). For the same compound, the GI50 [28] was 22.7 µM (inactive), the GI50 [29] was 64.3 µM (inactive) and the GI50 [30] was 55.6 µM (inactive). The GI50 [31] was 20.1 µM (inactive), the GI50 [32] was > 100 µM (inactive) and the GI50 [33] was 26.1 µM (inactive). The GI50 [34] was 19.5 µM (inactive), the GI50 [35] was > 100 µM (inactive) and the GI50 [36] was 28.6 µM (inactive). For the same compound, the GI50 [37] was 32.3 µM (inactive), the GI50 [38] was 22.6 µM (inactive) and the GI50 [39] was 28.7 µM (inactive). For the same compound, the GI50 [40] was 48.1 µM (inactive), the GI50 [41] was > 100 µM (inactive) and the GI50 [42] was 17.4 µM (inactive). The GI50 [43] was > 100 µM (inactive), the GI50 [44] was 11 µM (inactive) and the GI50 [45] was > 100 µM (inactive). The GI50 [46] was 16.7 µM (inactive), the GI50 [47] was 52.2 µM (inactive) and the GI50 [48] was 20.6 µM (inactive). The GI50 [49] was 39.2 µM (inactive), the GI50 [50] was 18.7 µM (inactive) and the GI50 [51] was 15.1 µM (inactive). The GI50 [52] was 34.7 µM (inactive), the GI50 [53] was 11.6 µM (inactive) and the GI50 [54] was 55.1 µM (inactive).
With `CCOC(=O)c1nc2ccccc2nc1Nc1ccc(OC)c(OC)c1` the GI50 [1] was 77.1 µM (inactive), the GI50 [2] was > 100 µM (inactive) and the GI50 [3] was > 100 µM (inactive). For the same compound, the GI50 [4] was > 100 µM (inactive), the GI50 [5] was > 100 µM (inactive) and the GI50 [6] was > 100 µM (inactive). For the same compound, the GI50 [7] was > 100 µM (inactive), the GI50 [8] was > 100 µM (inactive) and the GI50 [9] was 18.7 µM (inactive). For the same compound, the GI50 [10] was > 100 µM (inactive), the GI50 [11] was > 100 µM (inactive) and the GI50 [12] was over 100 µM. The GI50 [13] was > 100 µM (inactive), the GI50 [14] was > 100 µM (inactive) and the GI50 [15] was 62.7 µM (inactive). For the same compound, the GI50 [16] was > 100 µM (inactive), the GI50 [17] was 37.7 µM (inactive) and the GI50 [18] was > 100 µM (inactive). For the same compound, the GI50 [19] was > 100 µM (inactive), the GI50 [20] was > 100 µM (inactive) and the GI50 [22] was > 100 µM (inactive). The GI50 [55] was > 100 µM (inactive), the GI50 [23] was > 100 µM (inactive) and the GI50 [24] was > 100 µM (inactive). For the same compound, the GI50 [25] was > 100 µM (inactive), the GI50 [26] was > 100 µM (inactive) and the GI50 [27] was > 100 µM (inactive). The GI50 [29] was > 100 µM (inactive), the GI50 [30] was > 100 µM (inactive) and the GI50 [31] was > 100 µM (inactive). The GI50 [32] was > 100 µM (inactive), the GI50 [33] was > 100 µM (inactive) and the GI50 [34] was > 100 µM (inactive). The GI50 [35] was > 100 µM (inactive), the GI50 [38] was > 100 µM (inactive) and the GI50 [40] was 27.3 µM (inactive). For the same compound, the GI50 [41] was > 100 µM (inactive), the GI50 [42] was > 100 µM (inactive) and the GI50 [43] was > 100 µM (inactive). The GI50 [44] was > 100 µM (inactive), the GI50 [56] was 63.7 µM (inactive) and the GI50 [45] was > 100 µM (inactive). The GI50 [46] was > 100 µM (inactive), the GI50 [47] was > 100 µM (inactive) and the GI50 [48] was 21.9 µM (inactive). The GI50 [57] was > 100 µM (inactive), the GI50 [50] was > 100 µM (inactive) and the GI50 [58] was > 10 µM (inactive). For the same compound, the GI50 [51] was 75.7 µM (inactive), the GI50 [53] was > 100 µM (inactive) and the GI50 [54] was > 100 µM (inactive).
For `Clc1nc(Nc2nc3ccccc3[nH]2)nc(Cl)c1Cc1ccccc1`, the GI50 [1] was 45.9 µM (inactive), the GI50 [59] was > 100 µM (inactive) and the GI50 [2] was > 100 µM (inactive). For the same compound, the GI50 [3] was 85.7 µM (inactive), the GI50 [4] was > 100 µM (inactive) and the GI50 [5] was > 100 µM (inactive). The GI50 [6] was 63.5 µM (inactive), the GI50 [7] was > 100 µM (inactive) and the GI50 [8] was > 100 µM (inactive). For the same compound, the GI50 [9] was > 100 µM (inactive), the GI50 [11] was > 100 µM (inactive) and the GI50 [12] was 40.2 µM. For the same compound, the GI50 [13] was > 100 µM (inactive), the GI50 [15] was 23 µM (inactive) and the GI50 [16] was 54.1 µM (inactive). The GI50 [17] was 32.4 µM (inactive), the GI50 [18] was 97.3 µM (inactive) and the GI50 [19] was > 100 µM (inactive). For the same compound, the GI50 [20] was 81.7 µM (inactive), the GI50 [22] was > 100 µM (inactive) and the GI50 [23] was 30.7 µM (inactive). For the same compound, the GI50 [24] was > 100 µM (inactive), the GI50 [25] was 66.4 µM (inactive) and the GI50 [26] was > 100 µM (inactive). The GI50 [27] was > 100 µM (inactive), the GI50 [28] was > 100 µM (inactive) and the GI50 [29] was > 100 µM (inactive). The GI50 [30] was 89.1 µM (inactive), the GI50 [31] was 37 µM (inactive) and the GI50 [32] was > 100 µM (inactive). For the same compound, the GI50 [34] was 36.1 µM (inactive), the GI50 [35] was > 100 µM (inactive) and the GI50 [36] was > 100 µM (inactive). The GI50 [37] was > 100 µM (inactive), the GI50 [38] was > 100 µM (inactive) and the GI50 [39] was > 100 µM (inactive). For the same compound, the GI50 [40] was 49.4 µM (inactive), the GI50 [41] was > 100 µM (inactive) and the GI50 [42] was 31.2 µM (inactive). For the same compound, the GI50 [43] was > 100 µM (inactive), the GI50 [44] was > 100 µM (inactive) and the GI50 [56] was > 100 µM (inactive). For the same compound, the GI50 [45] was > 100 µM (inactive), the GI50 [46] was 59.4 µM (inactive) and the GI50 [47] was 93.1 µM (inactive). The GI50 [48] was 17.9 µM (inactive), the GI50 [57] was > 100 µM (inactive) and the GI50 [49] was > 100 µM (inactive). The GI50 [50] was 89.3 µM (inactive), the GI50 [58] was > 100 µM (inactive) and the GI50 [51] was 29.6 µM (inactive). The GI50 [52] was > 100 µM (inactive), the GI50 [53] was 72.4 µM (inactive) and the GI50 [54] was > 100 µM (inactive).
